According to EP4810040A2, “INHIBITORS OF APOL1 AND METHODS OF USING SAME” (priority 2020, dated 2022):
Like-named read-outs stand apart in the source and are kept apart here.

Biological target: T1, APOL1 G1 (Homo sapiens, UniProt O14791, I384M/S342G)
T1 sequence (O14791 28-398 S342G/I384M): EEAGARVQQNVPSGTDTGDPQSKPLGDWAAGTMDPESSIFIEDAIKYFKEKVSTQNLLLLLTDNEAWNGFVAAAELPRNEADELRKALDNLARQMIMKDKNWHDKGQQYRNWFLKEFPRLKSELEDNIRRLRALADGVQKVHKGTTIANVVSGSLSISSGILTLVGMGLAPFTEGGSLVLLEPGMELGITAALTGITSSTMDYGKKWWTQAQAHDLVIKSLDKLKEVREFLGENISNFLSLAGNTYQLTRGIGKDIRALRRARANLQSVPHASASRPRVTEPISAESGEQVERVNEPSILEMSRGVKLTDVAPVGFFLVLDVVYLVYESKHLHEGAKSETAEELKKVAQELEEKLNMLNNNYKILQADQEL
Assay: MultiTox-Fluor Multiplex Cytotoxicity Assay, tet-inducible APOL1 G1 T-REx-HEK293 cells
Assay type: cell-based
Design: expressed in transfected cells; host or cells: T-REx HEK293, clone G1 DC3.25 (pAAVS1-Puro-APOL1 G1)
Conditions: for IC90: read-out: Multi-Tox Assay IC90; for Emax: read-out: Multi-Tox Assay Max Activity (%)
In short: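 Over 24 h at 37 °C, compounds (10-point 3-fold series from 10 µM, duplicate) were co-incubated with 50 ng/mL tetracycline inducing APOL1 G1 in T-REx-HEK293 cells. Viability/cytotoxicity measured by MultiTox-Fluor as dead-to-live fluorescence ratio, expressed as percent of control between uninduced and induced wells and fitted.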

[1] = HEK293, Multi-Tox Assay, APOL1 variant (G0/G1/G2) of the HEK293 cells not given
[2] = Multi-Tox Assay, APOL1 variant not given
[3] = Multi-Tox Assay, APOL1 variant (G0/G1/G2) not stated in Table 46
[4] = Multi-Tox Assay, APOL1 variant not stated in Table 46

Compound: C[C@H]1C[C@@]2(C[C@@H](c3ccc4cn[nH]c4c3)N1)OCCc1cc(Cl)sc12 (racemic) [Compound 67]
- IC90 [1]: < 50 nM
- Emax [2]: 99.7%

Compound: C[C@H]1C[C@@]2(C[C@@H](c3cn(CC4(CO)CC4)nn3)N1)OCC(F)(F)c1cc(Cl)sc12 [Compound 357]
- IC90 [1]: 50 to 500 nM

Compound: C[C@H]1C[C@@]2(C[C@@H](c3cnc(C4CCOCC4)o3)N1)OCCc1cc(Cl)sc12 (racemic) [Compound 140]
- IC90 [1]: 50 to 500 nM
- Multi-Tox Assay Max Activity (%) [2]: 99.7%

Compound: Cc1ncc([C@@H]2C[C@]3(C[C@H](C)N2)OCCc2cc(Cl)sc23)cn1 (racemic) [Compound 82]
- IC90 [1]: < 50 nM
- Emax [2]: 99.7%

Compound: COc1cccc([C@@H]2C[C@]3(C[C@H](C)N2)OCCc2cc(Cl)sc23)c1O (racemic) [Compound 166]
- IC90 [1]: > 500 nM
- Multi-Tox Assay Max Activity (%) [2]: 96.7%

Compound: COc1ccc([C@@H]2C[C@]3(C[C@H](C)N2)OCCc2cc(Cl)sc23)cc1O (racemic) [Compound 99]
- IC90 [1]: < 50 nM

Compound: C#C[C@@H]1C[C@]2(C[C@H](C)N1)OCCc1cc(Cl)sc12 [Compound 221, (2S,4S,6S)-2'-chloro-2-ethynyl-6-methyl-4',5'-dihydrospiro[piperidine-4,7'-thieno[2,3-c]pyran]]
- IC90 [1]: 50 to 500 nM
- Emax [2]: 99%

Compound: Cc1n[nH]c2ncc([C@@H]3C[C@]4(C[C@H](C)N3)OCCc3cc(Cl)sc34)cc12 (racemic) [Compound 48]
- IC90 [1]: < 50 nM

Compound: Cc1nocc1[C@@H]1C[C@]2(C[C@H](C)N1)OCCc1cc(Cl)sc12 (racemic) [Compound 132]
- IC90 [1]: 50 to 500 nM
- Multi-Tox Assay Max Activity (%) [2]: 99.3%

Compound: C[C@H]1C[C@@]2(C[C@@H](c3cccc4cn[nH]c34)N1)OCCc1cc(Cl)sc12 (racemic) [Compound 168]
- IC90 [1]: > 500 nM
- Multi-Tox Assay Max Activity (%) [2]: 89.0%

Compound: C[C@H]1C[C@@]2(C[C@@H](c3cnn(CC(=O)N(C)C)c3)N1)OCCc1cc(Cl)sc12 [Compound 18, 2-[4-[(2S, 6S)-2-chloro-6'-methyl-spiro[4,5-dihydrothieno[2,3-c]pyran-7,4'-piperidine]-2'-yl]pyrazol-1-yl]-N,N-dimethyl-acetamide]
- IC90 [1]: < 50 nM
- Emax [2]: 99.5%

Compound: C[C@H]1C[C@@]2(C[C@@H](c3ncnn3C)N1)OCCc1cc(Cl)sc12 (racemic) [Compound 171]
- IC90 [1]: > 500 nM
- Multi-Tox Assay Max Activity (%) [2]: 71.8%

Compound: C[C@H]1C[C@@]2(C[C@@H](c3cn(CCC4CCCOC4)nn3)N1)OC[C@@H](O)c1cc(Cl)sc12 (stereo partly shown) [Compound 273]
- IC90 [1]: 50 to 500 nM
- Multi-Tox Assay Max Activity (%) [2]: 101.0%

Compound: CC(CO)CCn1cc([C@@H]2C[C@]3(C[C@H](C)N2)OC[C@@H](O)c2cc(Cl)sc23)nn1 (stereo partly shown) [Compound 264]
- IC90 [1]: 50 to 500 nM
- Multi-Tox Assay Max Activity (%) [2]: 100.0%

Compound: Cc1ncc(Cn2cc([C@@H]3C[C@]4(C[C@H](C)N3)OCC(F)(F)c3cc(Cl)sc34)nn2)cn1 [Compound 318]
- IC90 [1]: < 50 nM

Compound: C[C@H]1C[C@@]2(C[C@@H](c3cn(CC4CCCCO4)nn3)N1)OCC(F)(F)c1cc(Cl)sc12 (stereo partly shown) [Compound 343]
- IC90 [1]: 50 to 500 nM
- Multi-Tox Assay Max Activity (%) [2]: 97.0%

Compound: Cn1cc([C@@H]2C[C@]3(C[C@H](c4ccccc4)N2)OC[C@@H](O)c2cc(Cl)sc23)nn1 [Compound 387, (2'S,4S,6'R,7S)-2-chloro-2'-(1-methyltriazol-4-yl)-6'-phenyl-spiro[4,5-dihydrothieno[2,3-c]pyran-7,4'-piperidine]-4-ol]
- IC90 [3]: > 500 nM
- Emax [4]: 94%

Compound: Cc1ncoc1[C@@H]1C[C@]2(C[C@H](C)N1)OCCc1cc(Cl)sc12 (racemic) [Compound 157]
- IC90 [1]: > 500 nM
- Multi-Tox Assay Max Activity (%) [2]: 96.3%

Compound: CC1CC2(CC(c3cnn(-c4cccnc4)c3)N1)OCCc1cc(Cl)sc12 (stereo not shown) [Compound 40]
- IC90 [1]: < 50 nM
- Multi-Tox Assay Max Activity (%) [2]: 100.0%

Compound: C[C@H]1C[C@@]2(C[C@@H](c3cnc(N(C)C)nc3)N1)OCCc1cc(Cl)sc12 (racemic) [Compound 75]
- IC90 [1]: < 50 nM
- Emax [2]: 100%

Compound: Cc1nn(C)c2ncc(C3CC4(CC(C)N3)OCCc3cc(Cl)sc34)cc12 (stereo not shown) [Compound 42]
- IC90 [1]: < 50 nM
- Multi-Tox Assay Max Activity (%) [2]: 99.7%

Compound: C[C@H]1C[C@@]2(C[C@@H](c3cn(Cc4ccc(OC5CCOCC5)cc4)nn3)N1)OC[C@@H](O)c1cc(Cl)sc12 [Compound 266]
- IC90 [1]: 50 to 500 nM
- Multi-Tox Assay Max Activity (%) [2]: 100.0%

Compound: C[C@H]1C[C@@]2(C[C@@H](c3cnn(C)c3)N1)OCCc1cc(Cl)sc12 [Compound 19, (2S)-2-chloro-2'-methyl-6'-(1-methylpyrazol-4-yl)spiro[4,5-dihydrothieno[2,3-c]pyran-7,4'-piperidine]]
- IC90 [1]: < 50 nM
- Emax [2]: 99.3%

Compound: CCOc1ccc([C@@H]2C[C@]3(C[C@H](C)N2)OCCc2cc(Cl)sc23)nc1 (racemic) [Compound 69]
- IC90 [1]: < 50 nM
- Emax [2]: 99.7%

Compound: Cc1cc(C)nc(CCn2cc([C@@H]3C[C@]4(C[C@H](C)N3)OC[C@@H](O)c3cc(Cl)sc34)nn2)c1 [Compound 235]
- IC90 [1]: 50 to 500 nM
- Multi-Tox Assay Max Activity (%) [2]: 100.0%

Compound: Cc1ncc([C@@H]2C[C@]3(C[C@H](C)N2)OCCc2cc(Cl)sc23)o1 (racemic) [Compound 94]
- IC90 [1]: < 50 nM
- Emax [2]: 100%

Compound: C[C@H]1C[C@@]2(C[C@@H](c3cn(CCC(N)=O)nn3)N1)OCC(F)(F)c1cc(Cl)sc12 [Compound 328]
- IC90 [1]: 50 to 500 nM
- Multi-Tox Assay Max Activity (%) [2]: 100.0%

Compound: CCn1cc(Cn2cc([C@@H]3C[C@]4(C[C@H](C)N3)OC[C@@H](O)c3cc(Cl)sc34)nn2)cn1 [Compound 290]
- IC90 [1]: 50 to 500 nM

Compound: CC1CC2(CC(c3cncnc3)N1)OCCc1cc(Cl)sc12 (stereo not shown) [Compound 45]
- IC90 [1]: < 50 nM
- Multi-Tox Assay Max Activity (%) [2]: 100.0%

Compound: Cc1ccnc([C@@H]2C[C@]3(C[C@H](C)N2)OCCc2cc(Cl)sc23)c1 (racemic) [Compound 139]
- IC90 [1]: 50 to 500 nM
- Multi-Tox Assay Max Activity (%) [2]: 98.0%

Compound: CC(C)Cc1cc2c(s1)C1(C[C@@H](C)N[C@@H](C)C1)OCC2 (single isomer, unassigned) [Compound 201]
- IC90 [1]: > 500 nM
- Emax [2]: 95%

Compound: C[C@H]1C[C@@]2(C[C@@H](c3cn(Cc4ccccc4S(C)(=O)=O)nn3)N1)OCC(F)(F)c1cc(Cl)sc12 [Compound 347]
- IC90 [1]: 50 to 500 nM
- Multi-Tox Assay Max Activity (%) [2]: 96.0%

Compound: COc1cc(O)cc([C@@H]2C[C@]3(C[C@H](C)N2)OCCc2cc(Cl)sc23)c1 (racemic) [Compound 137]
- IC90 [1]: 50 to 500 nM
- Multi-Tox Assay Max Activity (%) [2]: 98.7%

Compound: C[C@H]1C[C@@]2(C[C@@H](c3ccc(S(N)(=O)=O)cc3F)N1)OCCc1cc(Cl)sc12 (racemic) [Compound 78]
- IC90 [1]: < 50 nM
- Emax [2]: 99.7%

Compound: C[C@H]1C[C@@]2(C[C@@H](c3cn(CC4CCOC4)nn3)N1)OCC(F)(F)c1cc(Cl)sc12 (stereo partly shown) [Compound 311]
- IC90 [1]: 50 to 500 nM

Compound: C[C@H]1C[C@@]2(C[C@@H](c3cn(C)nn3)N1)OC[C@H](O)c1cc(C(F)(F)F)sc12 [Compound 180]
- IC90 [1]: < 50 nM
- Emax [2]: 99.8%

Compound: C[C@H]1C[C@@]2(C[C@@H](c3cccc(S(N)(=O)=O)c3)N1)OCCc1cc(Cl)sc12 (racemic) [Compound 147]
- IC90 [1]: > 500 nM
- Multi-Tox Assay Max Activity (%) [2]: 92.3%

Compound: C[C@H]1C[C@@]2(C[C@@H](c3cn(CCO)nn3)N1)OCC(F)(F)c1cc(Cl)sc12 [Compound 361]
- IC90 [3]: 50 to 500 nM
- Multi-Tox Assay Max Activity (%) [4]: 98.0%

Compound: Cn1cc([C@@H]2C[C@]3(C[C@H](C4CC4)N2)OCCc2cc(C(F)(F)F)sc23)nn1 [Compound 383, (2'R,6'S,7S)-2'-cyclopropyl-6'-(1-methyltriazol-4-yl)-2-(trifluoromethyl)spiro[4,5-dihydrothieno[2,3-c]pyran-7,4'-piperidine]]
- IC90 [3]: < 50 nM
- Emax [4]: 100%

Compound: C[C@H]1C[C@@]2(C[C@@H](c3cn(Cc4ncnc5[nH]ccc45)nn3)N1)OCC(F)(F)c1cc(Cl)sc12 [Compound 350]
- IC90 [1]: 50 to 500 nM

Compound: C[C@H]1C[C@@]2(C[C@@H](CC3CCOCC3)N1)OCCc1cc(Cl)sc12 [Compound 219, (2S,6R)-2-chloro-2'-methyl-6'-(tetrahydropyran-4-ylmethyl)spiro[4,5-dihydrothieno[2,3-c]pyran-7,4'-piperidine]]
- IC90 [1]: > 500 nM
- Emax [2]: 88.7%

Compound: C[C@H]1C[C@@]2(C[C@@H](c3cn(Cc4cccnn4)nn3)N1)OC[C@@H](O)c1cc(Cl)sc12 [Compound 280]
- IC90 [1]: 50 to 500 nM

Compound: CC(C)N1CC(Cn2cc([C@@H]3C[C@]4(C[C@H](C)N3)OCC(F)(F)c3cc(Cl)sc34)nn2)CC1=O (stereo partly shown) [Compound 327]
- IC90 [1]: 50 to 500 nM
- Multi-Tox Assay Max Activity (%) [2]: 98.0%

Compound: CC(CO)Cn1cc([C@@H]2C[C@]3(C[C@H](C)N2)OC[C@@H](O)c2cc(Cl)sc23)nn1 (stereo partly shown) [Compound 256]
- IC90 [1]: 50 to 500 nM
- Multi-Tox Assay Max Activity (%) [2]: 96.0%

Compound: C[C@@H]1CC2(C[C@H](C)N1)OCCc1cc(CC(F)F)sc12 (single isomer, unassigned) [Compound 203]
- IC90 [1]: < 50 nM
- Emax [2]: 99.3%
